Measured values from patent publication US12005120B2, “Galnac conjugated modified oligonucleotides as miR-122 inhibitor having HCV antiviral activity with reduced hyperbilirubinemia side-effect” (Regulus Therapeutics Inc., priority 2018, dated 2024).
Read-outs that look alike come from different tables or passages of the source.

Experiments:
HCV GT1b replicon = test: HCV replicon assay (Huh7 cells, luciferase reporter); assay type: cell-based, HCV genotype 1b
From the text: An HCV replicon assay was used to determine the ability of anti-miR-122 compounds to inhibit the replication of HCV genotype 1b. In this assay, test compounds are introduced into Huh7 cells stably transfected with a HCV GT1b replicon containing a luciferase reporter gene. The luciferase reporter is used as an indirect measure of HCV replication. While a GalNAc-conjugated compound is expected to be preferable for treatment of HCV infection, due to the enhanced delivery to hepatocytes, some unconjugated compounds were tested.
Selected compounds were tested at nine concentrations ranging from 0.015 uM to 100 uM. GS-7977 (sofosbuvir) was included as a positive control. Cells were plated into 96-well plates at a density of 8,000 cells per well. Compound was added to the cells for a period of 72 hours. Luminescent signal in the supernatant was detected using the Bright-Glo reagent, and used to calculate the antiviral activity of each compound. The CellTiter-Fluor reagent was used to assess cell viability. The EC50 (concentration at which 50% inhibition was observed) was calculated.

MRP2 transporter = target: T1, MRP2 transporter (Homo sapiens, UniProt Q92887); test: In vitro MRP2 transporter assay (inside-out membrane vesicles, [3H]-estradiol-17β-glucuronide); assay type: in vitro ADME
T1 construct: expressed in transfected cells; host or cells: insect cells (transiently transfected); inside-out membrane vesicles
T1 sequence (Q92887 whole entry): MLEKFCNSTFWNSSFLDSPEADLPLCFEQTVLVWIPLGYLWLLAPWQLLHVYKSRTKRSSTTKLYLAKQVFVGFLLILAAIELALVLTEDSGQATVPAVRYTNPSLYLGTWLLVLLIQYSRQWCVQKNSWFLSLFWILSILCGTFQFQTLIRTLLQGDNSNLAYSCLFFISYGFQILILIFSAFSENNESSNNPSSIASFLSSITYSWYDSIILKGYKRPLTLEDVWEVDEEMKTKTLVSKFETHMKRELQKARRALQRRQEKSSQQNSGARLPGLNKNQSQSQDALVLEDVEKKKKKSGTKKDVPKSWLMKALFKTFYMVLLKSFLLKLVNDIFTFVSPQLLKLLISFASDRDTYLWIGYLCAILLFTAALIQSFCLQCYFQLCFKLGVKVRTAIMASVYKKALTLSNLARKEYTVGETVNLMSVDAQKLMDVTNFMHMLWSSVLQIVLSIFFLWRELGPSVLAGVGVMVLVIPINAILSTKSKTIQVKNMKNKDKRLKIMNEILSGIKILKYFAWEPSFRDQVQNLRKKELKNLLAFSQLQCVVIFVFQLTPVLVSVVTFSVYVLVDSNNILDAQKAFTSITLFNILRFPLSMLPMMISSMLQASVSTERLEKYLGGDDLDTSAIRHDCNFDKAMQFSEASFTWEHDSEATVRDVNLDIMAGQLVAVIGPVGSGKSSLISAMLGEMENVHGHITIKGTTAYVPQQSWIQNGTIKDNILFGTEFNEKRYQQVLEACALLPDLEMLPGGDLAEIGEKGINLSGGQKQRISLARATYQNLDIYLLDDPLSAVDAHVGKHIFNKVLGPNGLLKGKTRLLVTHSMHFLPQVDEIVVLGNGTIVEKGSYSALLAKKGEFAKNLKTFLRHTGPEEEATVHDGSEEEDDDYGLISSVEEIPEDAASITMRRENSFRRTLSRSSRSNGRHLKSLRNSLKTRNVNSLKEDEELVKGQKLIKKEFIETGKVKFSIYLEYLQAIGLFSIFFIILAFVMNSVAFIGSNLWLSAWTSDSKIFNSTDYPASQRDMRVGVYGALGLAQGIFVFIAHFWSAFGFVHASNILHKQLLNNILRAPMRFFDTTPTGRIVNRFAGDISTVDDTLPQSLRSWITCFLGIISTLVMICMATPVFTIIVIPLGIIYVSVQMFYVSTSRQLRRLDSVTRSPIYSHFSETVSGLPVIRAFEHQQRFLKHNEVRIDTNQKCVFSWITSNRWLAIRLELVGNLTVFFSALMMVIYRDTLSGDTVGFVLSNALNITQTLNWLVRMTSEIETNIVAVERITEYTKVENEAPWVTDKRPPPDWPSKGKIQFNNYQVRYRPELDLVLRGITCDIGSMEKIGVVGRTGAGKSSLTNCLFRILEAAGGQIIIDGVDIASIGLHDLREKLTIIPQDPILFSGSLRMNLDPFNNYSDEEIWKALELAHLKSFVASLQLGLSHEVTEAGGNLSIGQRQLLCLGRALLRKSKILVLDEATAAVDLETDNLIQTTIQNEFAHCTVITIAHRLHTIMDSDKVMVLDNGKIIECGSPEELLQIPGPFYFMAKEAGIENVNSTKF
Description: To test the hypothesis that RG-101 was interfering with MRP2 transporter activity, an in vitro assay was performed per methods known in the art (see, for example, Vermeer et al., Drug Metab. Dispos., 2016, 44(3):453-9). In this assay, an efflux transporter-expressing vesicle is used to evaluate if a drug is a substrate or inhibitor of a transporter. Inside-out membrane vesicles are prepared from insect cells transiently transfected with a single efflux transporter, in this case MRP2. As the vesicles are in an inside-out orientation, the MRP2 transporter pumps radiolabeled substrate, [3H]-estradiol-17β-glucuronide, in an ATP-dependent manner, into the vesicles, and the accumulation of radiolabeled substrate inside the vesicle is measured. If a compound is an MRP2 transport inhibitor, the accumulation of radiolabeled substrate will be reduced relative to control samples. The inhibitory effect of the compound is evaluated by determining the IC50, the concentration resulting in 50% inhibition of transporter-mediated uptake of the radiolabeled substrate.
The in vitro MRP2 assay was performed for RG-101. Both RG-101, and RG1649, the unconjugated anti-miR of RG-101, were tested at concentrations of 0, 0.1, 0.3, 1, 3, 10, 30, and 100 uM. […] Thus, RG-101 inhibited the MPR2 transporter in this assay.
The MRP2 assay was performed for anti-miR-122 compounds selected based on potency in the HCV replicon assay and structural diversity.

miR-122 [1] = test: In vivo potency: liver ALDOA mRNA derepression; details: single subcutaneous dose, liver after 7 days; for ALDOA derepression ED50 Expt #1: fold change in ALDOA mRNA relative to saline
Description: Inhibition of miR-122 leads to an increase in ALDOA expression, thus ALDOA mRNA levels can be used to measure miR-122 inhibitory activity in vivo.
(§1) Only GalNAc-conjugated compounds were tested in this assay. Compounds were administered at molar equivalents with regard to the anti-miR portion of the compound. A single, subcutaneous dose of RG-101 was administered subcutaneously at doses ranging from 0.004 to 1.116 umol/kg. Other compounds were administered in a single subcutaneous dose at doses ranging from 0.006 to 1.942 umol/kg. After 7 days the study was terminated. Liver tissue was collected for measurement of ALDOA mRNA and drug levels. Kidney tissue was collected for measurement of drug levels. Blood was collected for measurement of cholesterol.
ALDOA mRNA levels were measured, by quantitative PCR, in RNA isolated from liver. The fold change in ALDOA mRNA, relative to saline, was used to calculate an ED50 (umol/kg) for each compound (“ND” indicates “not determined), as shown in Table 4.

cholesterol = test: In vivo potency: cholesterol reduction; details: single subcutaneous dose (doses in umol/kg), blood after 7 days
Description: as §1

IFIT = test: In vivo safety: liver expression of interferon-inducible gene IFIT
Description: The compounds that met the criteria for in vivo potency were also tested for safety. The capacity of a compound to trigger a pro-inflammatory response was assessed by measuring the expression of the interferon-inducible gene IFIT in the liver. Additionally, the level of ALT following administration of a compound was also measured.

miR-122 [2] = test: Onset of action: liver ALDOA mRNA de-repression; assay type: in vivo, mice; details: 0.014 to 1.117 umol/kg; liver 1, 3, 7 or 14 days after administration; relative to RG2634
Description: To determine whether RG6650 and RG2634 could be distinguished by onset of action, groups of mice were treated with compound at doses ranging from 0.014 to 1.117 umol/kg. Liver tissue was collected from groups of 4 to 5 mice 1, 3, 7, or 14 days following administration. RNA was isolated and ALDOA mRNA was measured.

HCV genotype 1a = test: Human chimeric liver mouse model of HCV infection, serum HCV RNA; assay type: in vivo, mice; details: RG6650 60 mg/kg, single administration
From the text: Due to host-pathogen specificity, HCV can only infect humans and chimpanzees. As such, smaller species, such as mice, that are typically used for experimental in vivo studies cannot be infected with HCV for testing of candidate agents for the treatment of HCV infection. To address this problem, human liver chimeric mouse models may be utilized (see, e.g., Bissig et al., Proc Nat Acad Sci US A, 2007, 104:20507-20511; Bissig et al., J Clin Invest., 2010, 120: 924-930). In this model, the livers of immunodeficient mice are repopulated with human hepatocytes, resulting in a chimeric liver in which most of the hepatocytes are human hepatocytes. The mice are then infected with HCV and treated with anti-HCV agents. This mouse model is commercially available from, for example, PhoenixBio.
Anti-miR-122 compounds were tested in a human chimeric liver mouse model of HCV infection. The livers of immunodeficient mice were repopulated with human hepatocytes, resulting in a chimeric liver in which most of the hepatocytes are human hepatocytes. Six weeks following inoculation with HCV genotype 1a, a baseline viral titer was obtained for each animal included in the study.
Groups of four animals each were treated with PBS, RG-101 at a dose of 45 mg/kg, or RG6650 at a dose of 60 mg/kg. Blood was collected on Days 3, 7, 10, 14, 21, 28, 35, 42, and 49. The study was terminated on day 49.

miR-122 [3] = test: Pharmacodynamic activity in liver after oral or s.c. administration (ALDOA); assay type: in vivo, mice; details: 30 mg/kg s.c. in PBS, single dose, four days later
Description: An experiment was performed to determine whether oral administration of RG6650 would results in pharmacodynamic modulation of miR-122 in liver. Also tested was RG7443, the unconjugated anti-miR of RG6650. While an unconjugated anti-miR-122 is not as effective as a GalNAc-conjugated for the inhibition of miR-122 in the treatment of HCV, it was included for comparison in the oral administration study.
(§2) Anti-miR compounds were delivered in PBS for subcutaneous administration. Orally administered anti-miR compounds were prepared in a solution of PBS and 0.3 M sodium bicarbonate (BC) was added to a pH of 9.5. For oral dosing, animals were fasted for 12 hours prior. For all treatment groups, mice were administered a single dose and sacrificed four days later. Liver tissue was collected for pharmacodynamic and pharmacokinetic analyses. RNA was isolated from liver and kidney. […] in the liver was measured.

miR-122 [4] = test: Free uptake in primary human hepatocyte 3D spheroids, ALDOA by RT-PCR; assay type: cell-based
[5] = Anti-miR amounts in liver tissue after oral or s.c. administration; assay type: in vivo, mice; details: single dose, four days later
Description: as §2

HCV = details: chronic treatment naïve HCV infected subjects; cited from earlier work
[6] = MRP2 transporter assay, Expt #2, read-out: IC50 uM Expt #2
[7] = 72 hours, Expt #1, read-out: EC50 uM Expt #1

Row | Compound | IC50 (MRP2 transporter; [6]) [µM] | EC50 (HCV GT1b replicon; [7]) [µM] | ALDOA derepression ED50 Expt #1 (miR-122 [1]) [µmol/kg] | Cholesterol reduction ED50 Expt #1 (cholesterol) | further results
1 | CC(C)OC(=O)[C@H](C)N[P@](=O)(OC[C@H]1O[C@@H](n2ccc(=O)[nH]c2=O)[C@](C)(F)[C@@H]1O)Oc1ccccc1 [GS-7977, sofosbuvir, reference compound] | – | – | – | – | EC50 (HCV GT1b replicon; Hepatitis C virus, GT1B, Huh-7, 72 hours, Expt #1, read-out: EC50 uM Expt #1): 0.149 µM; EC50 (HCV GT1b replicon; Hepatitis C virus, GT1B, Huh-7, 72 hours, Expt #2, read-out: EC50 uM Expt #2): 0.098 µM
2 | CSASCSASCSUSCSCS [RG2634] | > 100 | 22.5 | 0.029 | 0.011 | –
3 | CSASCSASCSUSCSCS [RG497998] | – | 7.71 | – | – | –
4 | CSASCSASCSUSCSCSAS [RG6234] | > 100 | 17.4 | – | – | –
5 | CSASCS^POAS^POCS^POUS^POCSCSAS [RG6371] | – | 34.1 | 0.086 | 1.116 | –
6 | CsASCSASCSUSCSCSAS [RG6370] | > 100 | 60.9 | 6.51 | 0.0007 | Expression of IFIT in the liver (pro-inflammatory response) (IFIT): increased the expression of IFIT
7 | USCSACSACSTCSCS [RG6650] | – | – | – | – | IC50 (MRP2 transporter; MRP2 transporter assay, Expt #1, read-out: IC50 uM Expt #1): > 100 µM; IC50 (MRP2 transporter; assay conducted multiple times, read-out: MRP2 IC50 range over multiple studies): > 100 µM; EC50 (HCV GT1b replicon; 72 hours, Expt #2, read-out: EC50 uM Expt #2): 11.3 µM; ALDOA derepression ED50 Expt #2 (miR-122 [1]; Expt #2): 0.091 µmol/kg; Cholesterol reduction ED50 Expt #2 (cholesterol; Expt #2): 0.025; Onset of action by ALDOA mRNA de-repression (miR-122 [2]): increased de-repression of ALDOA mRNA at a lower dose and earlier time point; Reduction in serum HCV RNA (HCV genotype 1a): greater than 2 log; Viral titer, serum HCV RNA (HCV genotype 1a; RG-101 45 mg/kg, up to day 49, FIG. 1): significant reductions in viral titer; Liver PD Sig (miR-122 [3]): 1.704; EC50 (miR-122 [4]; 3D PHH spheroids, three days treatment, read-out: EC50 (ALDOA levels)): 0.00207 µM; Decrease of EC50 by the GalNAc conjugate (miR-122 [4]; RG6650 compared to RG7443): ~1000 fold
8 | USCSASCSASCSUSCSCS [RG3054] | > 100 | > 100 | – | .08152 | Expression of IFIT in the liver (pro-inflammatory response) (IFIT): increased the expression of IFIT
9 | USCSAS^POCS^POAS^POCS^POUSCSCS [RG6372] | – | > 100 | 0.028 | 0.8088 | –
10 | UsCsACsACsTCsCs [RG7443] | – | – | – | – | Liver PD Sig (miR-122 [3]): 1.945; Liver Mean (anti-miR amount) ([5]; 30 mg/kg s.c. in PBS): 1.48 µg/g; Liver Mean (anti-miR amount) ([5]; 100 mg/kg p.o. in BC): <0.4 µg/g
11 | miravirsen | – | – | – | – | Serum HCV RNA (HCV): reduction in serum HCV RNA
